Results from PubChem BioAssay AID2060891 (Molecular Pharmacology Branch, DTP, NCI, 2025).
Each block holds one molecule with its values, some of them ahead of it.

Tested on: K98450-129-R-PDC complex spheroid growth, percent test/control
Experiment: Anticancer human tumor K98450-129-R-PDC patient-derived colon adenocarcinoma cell line growth inhibition [RAS]
Conditions: for IC50: curve of first compound; for viability, T/C: stronger effect = lower value
How it was run: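 Agents were tested in combination matrices in half-log decrements from a top concentration at or near clinical Cmax (10 microM if undetermined). Targets were multi-cell spheroids of tumour lines plus HUVEC and MSC stromal cells.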

[1] = second compound 0.000949 µM, first compound 0.0316 µM
[2] = second compound 0.000949 µM, first compound 0.1 µM
[3] = second compound 0.000949 µM, first compound 0.316 µM
[4] = second compound 0.000949 µM, first compound 1 µM
[5] = second compound 0.000949 µM, first compound 3.16 µM
[6] = second compound 0.000949 µM, first compound 10 µM
[7] = second compound 0.003 µM, first compound 0.0316 µM
[8] = second compound 0.003 µM, first compound 0.1 µM
[9] = second compound 0.003 µM, first compound 0.316 µM
[10] = second compound 0.003 µM, first compound 1 µM
[11] = second compound 0.003 µM, first compound 3.16 µM
[12] = second compound 0.003 µM, first compound 10 µM
[13] = second compound 0.00949 µM, first compound 0.0316 µM
[14] = second compound 0.00949 µM, first compound 0.1 µM
[15] = second compound 0.00949 µM, first compound 0.316 µM
[16] = second compound 0.00949 µM, first compound 1 µM
[17] = second compound 0.00949 µM, first compound 3.16 µM
[18] = second compound 0.00949 µM, first compound 10 µM
[19] = second compound 0.03 µM, first compound 0.0316 µM
[20] = second compound 0.03 µM, first compound 0.1 µM
[21] = second compound 0.03 µM, first compound 0.316 µM
[22] = second compound 0.03 µM, first compound 1 µM
[23] = second compound 0.03 µM, first compound 3.16 µM
[24] = second compound 0.03 µM, first compound 10 µM
[25] = second compound 0.0949 µM, first compound 0.0316 µM
[26] = second compound 0.0949 µM, first compound 0.1 µM
[27] = second compound 0.0949 µM, first compound 0.316 µM
[28] = second compound 0.0949 µM, first compound 1 µM
[29] = second compound 0.0949 µM, first compound 3.16 µM
[30] = second compound 0.0949 µM, first compound 10 µM
[31] = second compound 0.3 µM, first compound 0.0316 µM
[32] = second compound 0.3 µM, first compound 0.1 µM
[33] = second compound 0.3 µM, first compound 0.316 µM
[34] = second compound 0.3 µM, first compound 1 µM
[35] = second compound 0.3 µM, first compound 3.16 µM
[36] = second compound 0.3 µM, first compound 10 µM
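Note: spheroids exposed to agents for seven days before the viability readout.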
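Throughout, for viability, T/C: luminescence used as a proxy for viable cell amount.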

IC50 (second compound 0.000949 µM): > 10000 nM
IC50 (second compound 0.003 µM): > 10000 nM
IC50 (second compound 0.00949 µM): < 31.6 nM
IC50 (second compound 0.03 µM): < 31.6 nM
IC50 (second compound 0.0949 µM): < 31.6 nM
IC50 (second compound 0.3 µM): < 31.6 nM
SMILES: CC(C)NCC(C(=O)N1CCN(c2ncnc3c2C(C)CC3O)CC1)c1ccc(Cl)cc1 (stereo not drawn) + CCn1c(-c2cccnc2C(C)OC)c2c3cc(ccc31)N1CCOC(CC(NC(=O)C(C(C)C)N(C)C(=O)C3(F)CCN(C(=O)C#CC(C)(C)N(C)C)CC3)C(=O)N3CCCC(N3)C(=O)OCC(C)(C)C2)C1
viability, T/C [1]: 64.3%
viability, T/C [2]: 61.4%
viability, T/C [3]: 83.3%
viability, T/C [4]: 73.7%
viability, T/C [5]: 73%
viability, T/C [6]: 70.4%
viability, T/C [7]: 68.8%
viability, T/C [8]: 46.6%
viability, T/C [9]: 61%
viability, T/C [10]: 51.2%
viability, T/C [11]: 64.1%
viability, T/C [12]: 47%
viability, T/C [13]: 45.4%
viability, T/C [14]: 37.7%
viability, T/C [15]: 42.9%
viability, T/C [16]: 34.6%
viability, T/C [17]: 50.8%
viability, T/C [18]: 39.6%
viability, T/C [19]: 33%
viability, T/C [20]: 39%
viability, T/C [21]: 36.8%
viability, T/C [22]: 34%
viability, T/C [23]: 38.1%
viability, T/C [24]: 35%
viability, T/C [25]: 32.4%
viability, T/C [26]: 42.1%
viability, T/C [27]: 34.7%
viability, T/C [28]: 36.4%
viability, T/C [29]: 36%
viability, T/C [30]: 34.5%
viability, T/C [31]: 31.6%
viability, T/C [32]: 38.5%
viability, T/C [33]: 34.4%
viability, T/C [34]: 32.6%
viability, T/C [35]: 33.7%
viability, T/C [36]: 32.2%

IC50 (second compound 0.000949 µM): 46.3 nM
IC50 (second compound 0.003 µM): 2.56 nM
IC50 (second compound 0.00949 µM): 0.449 nM
IC50 (second compound 0.03 µM): < 0.316 nM
IC50 (second compound 0.0949 µM): < 0.316 nM
IC50 (second compound 0.3 µM): < 0.316 nM
SMILES: CC(C)n1nc(-c2ccc3oc(N)nc3c2)c2c(N)ncnc21 + CCn1c(-c2cccnc2C(C)OC)c2c3cc(ccc31)N1CCOC(CC(NC(=O)C(C(C)C)N(C)C(=O)C3(F)CCN(C(=O)C#CC(C)(C)N(C)C)CC3)C(=O)N3CCCC(N3)C(=O)OCC(C)(C)C2)C1
viability, T/C (second compound 0.000949 µM, first compound 0.000316 µM): 58%
viability, T/C (second compound 0.000949 µM, first compound 0.001 µM): 66.9%
viability, T/C (second compound 0.000949 µM, first compound 0.00316 µM): 65.7%
viability, T/C (second compound 0.000949 µM, first compound 0.01 µM): 63.2%
viability, T/C [1]: 50.5%
viability, T/C [2]: 41.8%
viability, T/C (second compound 0.003 µM, first compound 0.000316 µM): 58.5%
viability, T/C (second compound 0.003 µM, first compound 0.001 µM): 53.4%
viability, T/C (second compound 0.003 µM, first compound 0.00316 µM): 53%
viability, T/C (second compound 0.003 µM, first compound 0.01 µM): 38.5%
viability, T/C [7]: 40.6%
viability, T/C [8]: 31.9%
viability, T/C (second compound 0.00949 µM, first compound 0.000316 µM): 52.1%
viability, T/C (second compound 0.00949 µM, first compound 0.001 µM): 46%
viability, T/C (second compound 0.00949 µM, first compound 0.00316 µM): 34.8%
viability, T/C (second compound 0.00949 µM, first compound 0.01 µM): 33.3%
viability, T/C [13]: 30.5%
viability, T/C [14]: 28.9%
viability, T/C (second compound 0.03 µM, first compound 0.000316 µM): 35.2%
viability, T/C (second compound 0.03 µM, first compound 0.001 µM): 40%
viability, T/C (second compound 0.03 µM, first compound 0.00316 µM): 36.5%
viability, T/C (second compound 0.03 µM, first compound 0.01 µM): 23.9%
viability, T/C [19]: 29.1%
viability, T/C [20]: 25.6%
viability, T/C (second compound 0.0949 µM, first compound 0.000316 µM): 34.3%
viability, T/C (second compound 0.0949 µM, first compound 0.001 µM): 32%
viability, T/C (second compound 0.0949 µM, first compound 0.00316 µM): 32.6%
viability, T/C (second compound 0.0949 µM, first compound 0.01 µM): 28.6%
viability, T/C [25]: 30.6%
viability, T/C [26]: 22.7%
viability, T/C (second compound 0.3 µM, first compound 0.000316 µM): 29.4%
viability, T/C (second compound 0.3 µM, first compound 0.001 µM): 35%
viability, T/C (second compound 0.3 µM, first compound 0.00316 µM): 30.1%
viability, T/C (second compound 0.3 µM, first compound 0.01 µM): 27.5%
viability, T/C [31]: 25.9%
viability, T/C [32]: 23.7%

IC50 (second compound 0.000949 µM): > 10000 nM
IC50 (second compound 0.003 µM): 829 nM
IC50 (second compound 0.00949 µM): < 31.6 nM
IC50 (second compound 0.03 µM): < 31.6 nM
IC50 (second compound 0.0949 µM): < 31.6 nM
IC50 (second compound 0.3 µM): < 31.6 nM
SMILES: CC(Nc1ccc2c(c1)OCCn1cc(N3C(=O)OCC3C(F)F)nc1-2)C(N)=O (stereo not drawn) + CCn1c(-c2cccnc2C(C)OC)c2c3cc(ccc31)N1CCOC(CC(NC(=O)C(C(C)C)N(C)C(=O)C3(F)CCN(C(=O)C#CC(C)(C)N(C)C)CC3)C(=O)N3CCCC(N3)C(=O)OCC(C)(C)C2)C1
viability, T/C [1]: 77.4%
viability, T/C [2]: 70.5%
viability, T/C [3]: 72.1%
viability, T/C [4]: 60.8%
viability, T/C [5]: 71.5%
viability, T/C [6]: 51.3%
viability, T/C [7]: 57.7%
viability, T/C [8]: 60.8%
viability, T/C [9]: 51.5%
viability, T/C [10]: 45.2%
viability, T/C [11]: 48.9%
viability, T/C [12]: 34.7%
viability, T/C [13]: 46.6%
viability, T/C [14]: 34.3%
viability, T/C [15]: 35.8%
viability, T/C [16]: 26.9%
viability, T/C [17]: 37.2%
viability, T/C [18]: 23%
viability, T/C [19]: 37.9%
viability, T/C [20]: 38.6%
viability, T/C [21]: 32.4%
viability, T/C [22]: 25%
viability, T/C [23]: 27.3%
viability, T/C [24]: 21.8%
viability, T/C [25]: 34.4%
viability, T/C [26]: 29.4%
viability, T/C [27]: 29.9%
viability, T/C [28]: 24.2%
viability, T/C [29]: 24%
viability, T/C [30]: 19.4%
viability, T/C [31]: 34.6%
viability, T/C [32]: 27%
viability, T/C [33]: 31.1%
viability, T/C [34]: 23.6%
viability, T/C [35]: 27.5%
viability, T/C [36]: 18.9%

IC50 (second compound 0.000949 µM): > 10000 nM
IC50 (second compound 0.003 µM): > 10000 nM
IC50 (second compound 0.00949 µM): > 10000 nM
IC50 (second compound 0.03 µM): < 31.6 nM
IC50 (second compound 0.0949 µM): < 31.6 nM
IC50 (second compound 0.3 µM): < 31.6 nM
SMILES: C[C@@H](NC(=O)c1ncnc(N)c1Cl)c1ncc(C(=O)Nc2cc(C(F)(F)F)c(Cl)cn2)s1 + CCn1c(-c2cccnc2C(C)OC)c2c3cc(ccc31)N1CCOC(CC(NC(=O)C(C(C)C)N(C)C(=O)C3(F)CCN(C(=O)C#CC(C)(C)N(C)C)CC3)C(=O)N3CCCC(N3)C(=O)OCC(C)(C)C2)C1
viability, T/C [1]: 87.9%
viability, T/C [2]: 87.2%
viability, T/C [3]: 87%
viability, T/C [4]: 70.2%
viability, T/C [5]: 54.4%
viability, T/C [6]: 61.5%
viability, T/C [7]: 57.9%
viability, T/C [8]: 64.3%
viability, T/C [9]: 63.5%
viability, T/C [10]: 61.6%
viability, T/C [11]: 66.2%
viability, T/C [12]: 53.7%
viability, T/C [13]: 57.8%
viability, T/C [14]: 55%
viability, T/C [15]: 54.5%
viability, T/C [16]: 55.3%
viability, T/C [17]: 59.2%
viability, T/C [18]: 48.6%
viability, T/C [19]: 40.3%
viability, T/C [20]: 44.5%
viability, T/C [21]: 53.6%
viability, T/C [22]: 61.6%
viability, T/C [23]: 54.1%
viability, T/C [24]: 46.9%
viability, T/C [25]: 39.2%
viability, T/C [26]: 40.5%
viability, T/C [27]: 53.3%
viability, T/C [28]: 55%
viability, T/C [29]: 62.3%
viability, T/C [30]: 49.9%
viability, T/C [31]: 32.4%
viability, T/C [32]: 43.9%
viability, T/C [33]: 35.2%
viability, T/C [34]: 53.7%
viability, T/C [35]: 56.3%
viability, T/C [36]: 39.3%
